Laboratory results from patent US7479489B2, “Heterocyclic antiviral compounds” (Roche Palo Alto LLC, priority 2004, dated 2009).

What was measured:
[1] = system: Renilla luciferase HCV replicon cells (2209-23); test: Renilla luciferase assay (HCV replicon); assay type: cell-based; details: 72 h; replicon level, three days incubation
[2] = molecular target: T1, HCV NS5B570n-BK (Hepatitis C virus genotype 1b, UniProt P26663); test: HCV NS5B RNA polymerase activity; assay type: biochemical, HCV BK strain
T1 construct: His tag (N); made in house; host or cells: E. coli strain M15
T1 sequence (P26663 2421-2989): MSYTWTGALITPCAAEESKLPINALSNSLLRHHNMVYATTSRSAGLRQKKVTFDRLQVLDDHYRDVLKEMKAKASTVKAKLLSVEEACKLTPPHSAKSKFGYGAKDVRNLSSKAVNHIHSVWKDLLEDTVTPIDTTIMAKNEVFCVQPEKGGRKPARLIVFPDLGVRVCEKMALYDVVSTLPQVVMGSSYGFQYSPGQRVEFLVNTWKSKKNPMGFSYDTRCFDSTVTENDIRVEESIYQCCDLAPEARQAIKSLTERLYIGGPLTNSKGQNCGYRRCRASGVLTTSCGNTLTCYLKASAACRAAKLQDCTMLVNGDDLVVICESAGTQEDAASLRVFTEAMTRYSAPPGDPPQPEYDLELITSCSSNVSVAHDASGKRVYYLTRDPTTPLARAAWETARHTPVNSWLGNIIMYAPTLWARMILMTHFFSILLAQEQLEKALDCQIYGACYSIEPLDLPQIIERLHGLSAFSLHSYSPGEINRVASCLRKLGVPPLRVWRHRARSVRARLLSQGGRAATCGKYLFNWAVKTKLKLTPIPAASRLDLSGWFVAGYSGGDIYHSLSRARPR
Experimental: The enzymatic activity of HCV NS5B570n-BK is measured as incorporation of radiolabeled nucleotide monophosphates into acid insoluble RNA products. Unincorporated radiolabel substrate is removed by filtration and scintillant is added to the washed and dried filter plate containing radiolabeled RNA product. The light emitted by the scintillant is proportional to the amount of RNA product generated by NS5B570n-BK at the endpoint of the reaction.
The N-terminally histidine tagged HCV polymerase, derived from HCV BK strain, genotype 1b (NS5B570n-BK) contains a 21 amino acid deletion at the C-terminus relative to the full-length HCV polymerase and is purified from E. coli strain M15. The construct containing the coding sequence of HCV BK strain amino acid residues 2421-2999 (GenBank accession number M58335) downstream of a […] promoter expression cassette was inserted into plasmid constructs. The plasmid constructs are transformed in E. coli and colonies are inoculated and grown overnight in 10 L of Terrific broth (Tartoff and Hobbs) supplemented with 100 μg/mL ampicillin at 37° C. Protein expression is induced by addition of 1 mM isopropyl-β-D-thiogalactopyranoside (IPTG), when optical densities reaches between 1.5 and 3.5 OD600 and the culture is then incubated for 16- to 18 h at 22° C. NS5B570n-BK is purified to homogeneity using a three step protocol including subsequent column chromatography on Ni-NTA, SP-Sepharose HP and Superdex 75 resins.
Each 50 μl enzymatic reaction contains 8:4 μg/mL polyA:oligo U16 (template:primer), 20 nM or 200 nM NS5B570n-BK enzyme, 1 μCi of tritiated UTP (Perkin Elmer catalog no. TRK412; specific activity: 30 to 60 Ci/mmol; stock solution concentration from 7.5×10^−5 M to 20.6×10^−6 M), 40 mM Tris-HCl pH 8.0, 2 to 40 mM NaCl, 4 mM DTT (dithiothreitol), 4 mM MgCl2, and 5 μl of compound serial diluted in DMSO. Reaction mixtures are assembled in MADVNOB 96-well filter plates (Millipore Co.) and incubated for 2 h at 30° C. Reactions are stopped by addition of 10% (v/v) trichloroacetic acid and incubated for 40 min at 4° C. Reactions are filtered, washed with 8 reaction volumes of 10% (v/v) trichloroacetic acetic acid, 4 reaction volumes of 70% (v/v) ethanol, air dried, and 25 μl of scintillant (Microscint 20, Perkin-Elmer) is added to each reaction well.
The amount of light emitted from the scintillant is converted to counts per minute (CPM) on a Topcount® plate reader (Perkin-Elmer, Energy Range: Low, Efficiency Mode: Normal, Count Time: 1 min, Background Subtract: none, Cross talk reduction: Off).
Data is analyzed with GraphPad® Prism® and/or Microsoft® Excel®. The reaction in the absence of enzyme is used to determine the background signal, which is subtracted from the enzymatic reactions. Positive control reactions are performed in the absence of compound, from which the background corrected activity is set as 100% polymerase activity. All data is expressed as a percentage of the positive control. The compound concentration at which the enzyme-catalyzed rate of RNA synthesis is reduced by 50% (IC50) is calculated by fitting equation (i) to
[formula] the data, where “Y” corresponds to the relative enzyme activity (in %), “% Min” is the residual relative enzymatic activity at saturating compound concentration, “% Max” is the maximal relative enzymatic activity compared to positive control, X corresponds to the compound concentration, and “S” is the Hill coefficient (or slope).
Alternatively the assay can be run as described above with the following modifications. The polyA:oligo U16 homopolymeric RNA template:primer is replaced by the heteropolymeric cIRES RNA template at concentrations of 20 nM or 200 nM. The cIRES RNA template is derived from the complementary sequence of the Internal Ribosome Entry site of the HCV genome (nucleotide 1 through 378 at the 5′-end of the negative strand of the HCV genome (EMBL database accession number AJ238799). The reaction mixture is supplemented with 1 μM ATP, CTP, and GTP […]

SMILES | IC50 [1] | IC50 ([2]; 200 nM polyA: oligo U16) | IC50 ([2]; 20 nM cIRES) | IC50 ([2]; 200 nM cIRES) | melting point
NC(=O)COc1ccc2c(c1)S(=O)(=O)C=C(c1c(O)c3cc(F)ccc3n(Cc3ccc(F)cc3)c1=O)N2 [Compound I-20, 2-{3-[6-Fluoro-1-(4-fluoro-benzyl)-4-hydroxy-2-oxo-1,2-dihydro-quinolin-3-yl]-1,1-dioxo-1,4-dihydro-1λ^6-benzo[1,4]thiazin-7-yloxy}-acetamide] | 1050 nM | 150 nM | – | – | –
CS(=O)(=O)Nc1ccc2c(c1)S(=O)(=O)C=C(c1c(O)c3cc(F)c(F)cc3n(Cc3ccc(F)cc3)c1=O)N2 [Compound I-69, N-{3-[6,7-Difluoro-1-(4-fluoro-benzyl)-4-hydroxy-2-oxo-1,2-dihydro-quinolin-3-yl]-1,1-dioxo-1,4-dihydro-1λ^6-benzo[1,4]thiazin-7-yl}-methanesulfonamide] | 15 nM | – | 14.4 nM | – | –
CS(=O)(=O)Nc1ccc2c(c1)S(=O)(=O)C=C(c1c(O)c3cc(F)ccc3n(Cc3ccc(F)cc3)c1=O)N2 [Compound I-24, N-{3-[6-Fluoro-1-(4-fluoro-benzyl)-4-hydroxy-2-oxo-1,2-dihydro-quinolin-3-yl]-1,1-dioxo-1,4-dihydro-1λ^6-benzo[1,4]thiazin-7-yl}-methanesulfonamide] | 13 nM | 151 nM | 5.5 nM | 67 nM | –
CC(C)(C)[C@H]1C(O)=C(C2=CS(=O)(=O)c3cc(NS(C)(=O)=O)ccc3N2)C(=O)N1Cc1ccc(F)c(Cl)c1 [II-11, N-{3-[(S)-5-tert-Butyl-1-(3-chloro-4-fluoro-benzyl)-4-hydroxy-2-oxo-2,5-dihydro-1H-pyrrol-3-yl]-1,1-dioxo-1,4-dihydro-1λ^6-benzo[1,4]thiazin-7-yl}-methanesulfonamide] | 9 nM | – | 4.6 nM | – | –
CCS(=O)(=O)Nc1ccc2c(c1)S(=O)(=O)C=C(c1c(O)c3cc(F)ccc3n(CCC3CC3)c1=O)N2 [Compound I-32, ethanesulfonic acid {3-[1-(2-cyclopropyl-ethyl)-6-fluoro-4-hydroxy-2-oxo-1,2-dihydro-quinolin-3-yl]-1,1-dioxo-1,4-dihydro-1λ6-benzo[1,4]thiazin-7-yl}-amide] | 5 nM | 220 nM | 7.3 nM | – | 140 to 142 °C
NS(=O)(=O)Nc1ccc2c(c1)S(=O)(=O)C=C(c1c(O)c3cc(F)ccc3n(CCC3CC3)c1=O)N2 [Compound I-40, 1-{3-[1-(2-cyclopropyl-ethyl)-6-fluoro-4-hydroxy-2-oxo-1,2-dihydro-quinolin-3-yl]-1,1-dioxo-1,4-dihydro-1λ^6-benzo[1,4]thiazin-7-yl}-sulfamide] | 9 nM | 350 nM | – | – | 183 to 186 °C
